The values that follow are results of earlier work, collected in patent US11576886B2, “Constructs comprising fatty acids” (POLYREM LIMITED, priority 2017, dated 2023).

For this data set, the system named is Wnt/β-catenin signalling.
On to `CNCCC(Oc1ccc(C(F)(F)F)cc1)c1ccccc1` (centres unmarked) [Fluoxetine], for which the Wnt/β-catenin signalling entry is recorded as “increase Wnt/β-catenin signalling”.

For the molecule `COCCCC/C(=N\OCCN)c1ccc(C(F)(F)F)cc1` [Fluvoxamine], the Wnt/β-catenin signalling result is reported as “increase Wnt/β-catenin signalling”.

In the case of `O=C(CCCN1CCC(O)(c2ccc(Cl)cc2)CC1)c1ccc(F)cc1` [Haloperidol], the Wnt/β-catenin signalling entry is recorded as “increase Wnt/β-catenin signalling”. `Cc1nc2n(c(=O)c1CCN1CCC(c3noc4cc(F)ccc34)CC1)CCCC2` [Risperidone]: the Wnt/β-catenin signalling result is “increase Wnt/β-catenin signalling”. With `COc1ccc(C(CN(C)C)C2(O)CCCCC2)cc1` (centres unmarked) [Venlafaxine], the Wnt/β-catenin signalling entry is listed as “increase Wnt/β-catenin signalling”.
